{
  "source": "ChEMBL document CHEMBL1145686",
  "about": "“Three new oleanane saponins from Zanha africana” (1997)",
  "data": [
    {"system": "Mus musculus", "experiment": "Antiinflammatory activity against TPA-induced ear edema in mouse assessed per ear", "format": "functional", "units": {"ID50": "µg"}, "values": [
      {"smiles": "C[C@@H]1O[C@@H](O[C@H]2[C@H](OC(=O)[C@]34CCC(C)(C)C[C@H]3C3=CC[C@@H]5[C@@]6(C)C[C@H](O)[C@H](O[C@@H]7O[C@H](C(=O)O)[C@@H](O)[C@H](O)[C@H]7O)[C@@](C)(C(=O)O)[C@@H]6CC[C@@]5(C)[C@]3(C)C[C@H]4O)O[C@@H](C)[C@H](O)[C@H]2O)[C@H](O[C@@H]2OC[C@@H](O)[C@H](O[C@@H]3OC[C@@H](O)[C@H](O)[C@H]3O)[C@H]2O)[C@H](O)[C@H]1O", "note": "[ZANHASAPONIN C]", "ID50": 79},
      {"smiles": "C[C@@H]1O[C@@H](O[C@H]2[C@H](OC(=O)[C@]34CCC(C)(C)C[C@H]3C3=CC[C@@H]5[C@@]6(C)C[C@H](O)[C@H](O[C@@H]7O[C@H](C(=O)O)[C@@H](O)[C@H](O)[C@H]7O)[C@@](C)(C(=O)O)[C@@H]6CC[C@@]5(C)[C@]3(C)C[C@H]4O)O[C@@H](C)[C@H](O)[C@H]2O)[C@H](O[C@@H]2OC[C@@H](O)[C@H](O)[C@H]2O)[C@H](O)[C@H]1O", "note": "[ZANHASAPONIN B]", "ID50": 20},
      {"smiles": "C[C@@H]1O[C@@H](O[C@H]2[C@H](OC(=O)[C@]34CCC(C)(C)C[C@H]3C3=CC[C@@H]5[C@@]6(C)C[C@H](O)[C@H](O[C@@H]7O[C@H](C(=O)O)[C@@H](O)[C@H](O)[C@H]7O)[C@@](C)(C(=O)O)[C@@H]6CC[C@@]5(C)[C@]3(C)C[C@H]4O)O[C@@H](C)[C@H](O)[C@H]2O)[C@H](O)[C@H](O)[C@H]1O", "note": "[ZANHASAPONIN A]", "ID50": 14}
    ]}
  ]
}
